Test: Preformulation stability and solubility tests of calcitriol in two excipients
Type: physicochemical
Settings: 800 ppm; 4° C., ambient temperature and 40° C.; 1 month
Experimental: Preliminary preformulation studies were carried out to direct the choice of the lipid core (oily internal phase) of the lipid vesicles. The results of tests of stability and of solubility of calcitriol in two excipients are presented in the graphs below. The objective of these solubility and stability studies on calcitriol is to find the oil which will make possible good solubility of calcitriol for the proposals for internal phase used in this concept and good stability of calcitriol in this excipient. Calcitriol is stable at 800 ppm in Miglyol 812 (caprylic/capric triglyceride: MTC) and tocopherol acetate at the three temperatures (4° C., ambient temperature and 40° C.) for 1 month.

Stability of calcitriol in Miglyol 812 (caprylic/capric triglyceride): stable
Stability of calcitriol in tocopherol acetate: stable
Compound: C=C1/C(=C\C=C2/CCC[C@]3(C)[C@@H]([C@H](C)CCCC(C)(C)O)CC[C@@H]23)C[C@@H](O)C[C@@H]1O [Calcitriol, calcitriol]

From patent US20100221350A1, “DERMATOLOGICAL COMPOSITIONS COMPRISING VITAMIN D LIPID VESICLES” (GALDERMA S.A., priority 2007, published 2010)
